Assay results: patent US20250114430A1, “MODIFIED PEPTIDOMIMETICS AND METHODS OF USE” (The University of North Carolina at Chapel Hill, priority 2021, published 2025)
Non-standard residues stand in square brackets, D forms with d. No end group written: not given here.

Assays:
P. aeruginosa [1] = test: P. aeruginosa growth in the presence of peptide; assay type: cell-based; conditions: in vitro
Orai1 = Orai1 (Homo sapiens, UniProt Q96D31); test: Dose response of Ca^2+ influx (SOCE), Ca^2+ add back approach, HEK293T cells; assay type: cell-based; set-up: Endogenous Orai1/store operated Ca^2+ influx have been extensively studied in HEK293T cells; endogenous in cells; host or cells: HEK293T
Sequence of Orai1 (Q96D31 whole entry): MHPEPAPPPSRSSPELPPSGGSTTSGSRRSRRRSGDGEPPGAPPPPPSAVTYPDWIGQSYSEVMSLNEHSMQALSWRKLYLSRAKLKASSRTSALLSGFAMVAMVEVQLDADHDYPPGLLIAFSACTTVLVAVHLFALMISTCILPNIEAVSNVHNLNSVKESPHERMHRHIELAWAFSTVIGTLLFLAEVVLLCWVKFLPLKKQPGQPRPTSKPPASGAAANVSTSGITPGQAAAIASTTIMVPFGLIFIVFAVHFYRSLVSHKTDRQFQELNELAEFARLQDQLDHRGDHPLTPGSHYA
Protocol: HEK293T cells were cultured in 384 well plates. Cells were then exposed to vehicle or […] ELD607 for 1 h. 100 nM thapsigargin was then added followed by extracellular Ca^2+ to differentiate ER Ca^2+ release and SOCE. n=8-12 cultures per data point.
ELD607 requires Orai1 expression to inhibit Ca^2+ signaling. […] Using this approach, curves were fitted to the data and the 50% inhibitory concentrations (IC50S) were calculated.

[2] = molecular target: T1, human neutrophil elastase (Homo sapiens, UniProt P08246); assay type: in vitro ADME
T1 sequence (P08246 30-267): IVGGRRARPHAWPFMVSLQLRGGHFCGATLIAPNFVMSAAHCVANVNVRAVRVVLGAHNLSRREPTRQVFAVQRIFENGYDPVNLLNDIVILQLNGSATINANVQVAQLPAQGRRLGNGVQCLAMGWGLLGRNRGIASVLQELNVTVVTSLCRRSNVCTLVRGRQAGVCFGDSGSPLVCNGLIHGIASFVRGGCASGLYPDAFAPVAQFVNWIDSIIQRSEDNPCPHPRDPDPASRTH
Protocol: Peptides were exposed to NE over time, and the reaction was stopped by addition of sivelestat. HPLC was then performed in order to determine peptide stability. N=3-4 replicates per time point.
HEK293T cells were plated and incubated for 2 hours with Fluo-4 plus or minus ELD peptides, with fluorescent images taken every 30 seconds for 2-6 minutes at excitation/emission wavelengths of 488/530 nm. […] Candidate peptides ELD604, 607, 601, and 100 were tested for resistance against protease degradation, wherein the peptides were incubated with neutrophil elastase, treated with the elastase inhibitor sivelestat at various timepoints to halt ongoing reactions, and then analyzed by HPLC (FIG. 9).
Endogenous Orai1/store operated Ca^2+ influx have been extensively studied in HEK293T cells, so this cell type was used to understand ELD607-Orai1 interactions. […] Thapsigargin is a SERCA pump inhibitor that prevents uptake of cytosolic Ca^2+ into the endoplasmic reticulum. Thapsigargin is commonly used to stimulate Orai1/store operated Ca^2+ influx. […] Dynamic light scattering (DLS) was used to evaluate binding of ELD607 to peptides of Orai1 extracellular loops. […] Thus, it was concluded that ELD607 interacts with Orai1.

HEK293T cells = test: Cytoplasmic Ca^2+ (Fluo-4) in HEK293T cells incubated with ELD peptides; assay type: cell-based; conditions: 2 hours with Fluo-4 plus or minus peptide
[3] = system: SARS-CoV-2 S1 pseudovirus; assay type: cell-based
P. aeruginosa [4] = test: P. aeruginosa infection in WT mice, ELD607 versus comparators; assay type: in vivo; conditions: WT mice infected with P. aeruginosa
Description: We then infected WT mice with P. aeruginosa and treated with ELD607, the Orai1 small molecule antagonist […], dexamethasone or scrambled ELD607.

O=C(O)c1cn(C2CC2)c2cc(N3CCNCC3)c(F)cc2c1=O [ciproflaxin, reference compound]
P. aeruginosa growth (P. aeruginosa [1]): fully inhibited bacterial growth

DITLVHDIVNMLIHGL [ELD100, DITLVHDIVNMLIHGL]
IC50 (Orai1; Ca^2+ influx, HEK293T, 100 nM thapsigargin, read-out: IC50 (Molar)): 37 nM | Bottom (%) (Orai1; fitted curve bottom, text: maximal inhibitions): 57.03% | stability against neutrophil elastase [2]: not neutrophil elastase resistant

n-VHDIVNMLIHG-n (VHDIVNMLIHG-NH2; not fully specified; also: N-terminal amidation) [ELD621]
cytoplasmic calcium levels as compared to a control scrambled peptide (HEK293T cells): reduced cytoplasmic calcium levels | pseudovirus infection (% DsRed-positive cells) [3]: inhibited viral replication

HDINMLIHG [ELD601, HDINMLIHG]
stability against neutrophil elastase [2]: still degraded by elastase

Cc1nnsc1C(=O)Nc1ccc(-n2nc(C(F)(F)F)cc2C(F)(F)F)cc1 [YM-58453, reference compound]
neutrophilia, weight loss, bacterial infections and lung macrophage levels (these parameters) (P. aeruginosa [4]): neither −58453, dexamethasone nor scrambled ELD607 had any significant effects

a-HDIVNMLIH-a ([dA]HDIVNMLIH[dA]) [ELD604]
cytoplasmic calcium levels as compared to a control scrambled peptide (HEK293T cells): reduced cytoplasmic calcium levels | stability against neutrophil elastase [2]: significantly more stable | pseudovirus infection (% DsRed-positive cells) [3]: inhibited viral replication
